Laboratory results: patent publication US10617755B2, “Combination therapy for the treatment of glioblastoma” (Genentech, Inc., priority 2013, dated 2020)

Columns and labels:
[1] = test system: newly diagnosed glioblastoma; test: AvaGlio Phase III trial: bevacizumab plus temozolomide and radiotherapy versus placebo plus temozolomide and radiotherapy; format: in vivo, human; details: for OS hazard ratio (HR), multivariate Cox proportional hazard model: adjusted for prognostic covariates; for OS benefit, multivariate analysis (result in words): known prognostic covariates considered
Source text: The AvaGlio trial evaluated the efficacy and safety of bevacizumab in combination temozolomide and radiotherapy for newly diagnosed glioblastoma. This study was designed as a prospective, randomized, double blind, placebo controlled Phase III evaluation of bevacizumab plus chemotherapy versus chemotherapy alone. To be eligible, patients must have had newly diagnosed glioblastoma with a tissue diagnosis that has been established following either a surgical resection or biopsy. By adding bevacizumab to chemotherapy and radiotherapy, the AvaGlio trial aimed to improve overall survival (OS) and progression-free survival (PFS) for this group of patients who had limited therapeutic options and faced a particularly poor prognosis. The primary objective was to compare OS and PFS of patients randomized to temozolomide (TMZ) and radiotherapy only or to temozolomide and radiotherapy plus bevacizumab.
This trial consisted of three phases (Concurrent, Maintenance, and Monotherapy) and two (2) treatment arms: TMZ and radiotherapy (RT) (Arm 1), and TMZ and RT plus bevacizumab (Arm 2). Patients were randomly assigned (1:1) to either arm.
Arm 1 (chemotherapy and radiotherapy alone): Eligible patients received 2 Gy RT 5 days a week for 6 weeks and 75 mg/m^2 TMZ orally daily for 6 weeks from the first day to the last day of RT in combination with 10 mg/kg placebo i.v. every 2 weeks. After a 4-week treatment break, eligible patients received 6 cycles of 150-200 mg/m^2 TMZ on days 1-5 of an every-4-week schedule in combination with 10 mg/kg placebo i.v. every 2 weeks. TMZ was administered orally starting with a 150 mg/m^2 dose that could be escalated. Placebo monotherapy (15 mg/kg every 3 weeks) was then continued until disease progression. Upon disease progression, patients were treated at the investigator's discretion.
Arm 2 (chemotherapy and radiotherapy plus bevacizumab): Eligible patients received 2 Gy RT 5 days a week for 6 weeks and 75 mg/m^2 TMZ orally daily for 6 weeks from the first day to the last day of RT in combination with 10 mg/kg bevacizumab i.v. every 2 weeks. After a 4-week treatment break, eligible patients received 6 cycles of 150-200 mg/m^2 TMZ on days 1-5 of an every-4-week schedule in combination with 10 mg/kg bevaciumab i.v. every 2 weeks. TMZ was administered orally starting with a 150 mg/m^2 dose that could be escalated. Bevaciazumab monotherapy (15 mg/kg every 3 weeks) was then continued until disease progression. Upon disease progression, patients were treated at the investigator's discretion.
The initial bevacizumab infusion was over 90 minutes, with subsequent infusions over 60 minutes and then 30 minutes, as tolerated. Bevacizumab was administered on the last day of RT and TMZ treatment, i.e., the day before the start of the TMZ treatment break.
Analyses of PFS were based on tumor assessments MacDonald Response Criteria (modified WHO criteria) using MRI of the brain and a neurological evalution as described in Macdonald et al. (J. Clin. Oncol. 8: 1277-80, 1990). Tumor assessments were performed at baseline, at the end of the 4-week treatment break, then every 8 weeks.
Next, we classified the 349 samples from the AvaGlio trial for which biomarkers could be evaluated into the gene expression subtypes defined by Phillips (Cancer Cell. 9(3): 157-173, 2006).
Samples were analyzed with the same Nanostring probe set used to derive the subtype-specific centroids and expression scores for the same genes were obtained using the same technology and probe sequences. Of the 349 samples, 10 samples from patients carrying mutation(s) in the isocitrate dehydrogenase 1 (IDH1) gene, known to be associated with good prognoses, were excluded from this analysis. Of the remaining 339 IDH1 wild-type samples, raw Nanostring counts were log 2 transformed and the mean expression and standard deviation across all samples was adjusted to the same reference values applied to the training set of Example 2 above. […]

[2] = test system: newly diagnosed glioblastoma; test: as above; format: in vivo, human; details: known prognostic covariates considered

Substance: bevacizumab: recombinant humanized anti-VEGF monoclonal antibody generated according to Presta et al.; VL SEQ ID NO: 1, VH SEQ ID NO: 2
- OS hazard ratio (HR), multivariate Cox proportional hazard model ([1]; PN subtype (Phillips), IDH1 wild-type, 95% CI 0.24-0.72, p=0.002): 0.42
- extension of median OS in the treatment arm relative to the placebo arm ([1]; PN subtype (Phillips), n=99): about 4.9 months
- PFS hazard ratio (HR), treatment arm relative to placebo arm ([1]; PN subtype (Phillips), n=99, 95% CI 0.37-0.9, p=0.015): 0.58
- OS hazard ratio (HR), treatment arm relative to placebo arm ([1]; PN subtype (Phillips), n=99, 95% CI 0.4-0.99, p=0.043): 0.63
- median OS in the treatment arm ([1]; PN subtype (Phillips), placebo arm 12.2 months): 17.1 months
- OS benefit, multivariate analysis (result in words) ([1]; Phillips-classified PN subtype): statistically significant benefit in extending OS
- OS benefit, multivariate analysis (result in words) ([1]; Phillips-classified non-PN subtype): do not show significant OS benefit
- extension of median PFS in the treatment arm relative to the placebo arm ([1]; Phillips-classified proneural (PN) subtype, IDH1 wild-type, n=99): about 4.3 months
- increase in median progression-free survival (PFS) compared to the placebo arm ([1]; all patients, treatment arm (RT/TMZ/bevacizumab) vs placebo arm): about 4.4 months
- median overall survival (OS), difference between arms ([1]; all patients, treatment arm vs placebo arm): not significantly different between arms
- OS hazard ratio (HR), multivariate Cox proportional hazard model ([1]; non-PN subtype (Phillips), 95% CI 0.76-1.39, p=0.863): 1.03
- PFS and OS improvement (result in words) ([1]; patients having glioblastoma of the PN type): significant PFS and OS improvement
- OS benefit, multivariate analysis (result in words) ([2]; TCGA-classified PN subtype): significant OS benefit
- OS benefit, multivariate analysis (result in words) ([2]; TCGA-classified non-PN subtype): do not show significant OS benefit
